Laboratory results from article PMC10499603, “Polθ is phosphorylated by PLK1 to repair double-strand breaks in mitosis” (Nature, 2023).

What was measured:
[1] = tested on: Polθ recruitment to mitotic DSBs; test: Polθ recruitment to laser microirradiated stripes in mitosis; assay type: cell-based, human; conditions: PARPi (Rucaparib), laser microirradiation
Protocol: Laser micro-irradiation was performed with a two-photon Ti:Saphire laser (Mai Tai DeepSee, Spectra Physics) at 800 nm with 20% power (from 2.1 W) on an inverted laser scanning confocal microscope equipped with spectral detection and a multi-photon laser (LSM880NLO/Mai Tai Laser, Zeiss, Spectra Physics), using a 40× objective NA1.3 oil DICII PL APO (420852-9870). Images were analysed using the ‘plot Z-axis profile’ function of Fiji (version 2.1.0/1.53c). X-ray irradiations were performed using the CIXD Dual Irradiator (RadeXp platform, Institut Curie).

BRCA2^−/− cells = test: Clonogenic survival, BRCA2^−/−; assay type: cell-based, human; conditions: Rucaparib 1 μM, 1 h in mitosis
Protocol: (§1) For mitotic cells: cells were blocked in G2 using RO3306 (5 μM), released, then blocked in mitosis by nocodazole and subsequently seeded for clonogenic survival. Polθ-mAID cells were blocked 4 h in RO3306 (5 μM) with or without IAA (500 μM) and released in nocodazole with or without IAA for 1 h. In the case of PARPi treatment, cells were blocked 16 h in RO3306 (5 μM) and released in nocodazole with or without Rucaparib (1 μM) for 1 h. After shake off, mitotic cells were washed twice with warm media, counted and seeded for clonogenic survival. For interphase cells: growing cells were treated with IAA (500 μM), or Rucaparib (1 μM) for indicated time, washed twice with warm media and counted. For clonogenic assay upon siRNA transfection, 150,000 cells were plated per well of a 6-well plate and transfected the same day with indicated siRNA. The day after, cells were washed twice, counted and seeded for clonogenic survival. For each condition, two concentrations of cells (BRCA2^−/− cells: 500 and 2000 cells; wild-type cells: 50 and 150 cells) were seeded per well of a 6-well plate. Finally, 10 to 14 days after seeding, colonies were stained with blue methylene (Sigma, 1808) for 2 h at room temperature, washed in water, air-dried overnight and scored manually.

mitotic BRCA2^−/− cells [2] = test: γH2AX / DSB formation in mitotic cells; assay type: cell-based, human; conditions: Rucaparib 1 μM, 1 h in mitosis
Protocol: (§2) Cells grown on coverslips were fixed for 15 min in 2% paraformaldehyde, permeabilized for 10 min in 0.5% Triton X-100, blocked for 30 min in BSA 5%, 0.1% Triton X-100, immunostained for 1 h with primary antibodies, 45 min with secondary antibodies (Highly Cross-Adsorbed Secondary Antibodies Alexa Fluor, ThermoFisher Scientific) and mounted Vectashield mounting medium containing DAPI (Vector Laboratories). The same protocol was applied to mitotic cells, which were collected by shake off and centrifuged onto glass slides using a cytospin centrifuge (400g, 5 min) before fixation. […] Biotin azide-EdU click-it reaction was performed after fixation and permeabilization by incubating cells with a mix of Picolyl biotin, CuSO4, THPTA (Jena Bioscience) and sodium ascorbate in PBS for 30 min in the dark followed by an incubation with streptavidin conjugated Alex fluor 647 antibody (ThermoFisher Scientific) during 1 h at room temperature. Images were taken at 60× or 100× magnification using Upright Spinning disk Confocal Microscope (Roper/Zeiss) or at 40× magnification using DeltaVision (Deconvolution) Image Restoration Microscope. All images were taken with a Z-stack of 0.4 μM on 8 μM range around focus and projected using maximum intensity projection. Images were analysed using the Fiji software. All scale bars represent 5 μm unless stated otherwise.

mitotic BRCA2^−/− cells [3] = test: Metaphase spreads, chromosomal abnormalities; assay type: cell-based, human; conditions: Rucaparib, 1 h in mitosis
Protocol: Cells were blocked in G2 with RO3306 (5 μM) for 16 h, released, then blocked in mitosis by nocodazole and subsequently treated with Rucaparib for 1 h. After shake off, mitotic cells were centrifuged and subsequently resuspended in a pre-warmed hypotonic solution (0.075 M KCl) and maintained at 37 °C for 15 min. Cells were then centrifuged, and pellets were fixed in fresh methanol and stored at −20 °C. After metaphase spreading, air-dried slides were stained with a Gurr/Giemsa/Acetone solution (Gibco, 10582013; Giemsa (KaryoMAX Giemsa stain solution, Gibco, 10092013)) for 5 min and then rinsed twice with Gurr buffer. Slides were air-dried and neo-mounted with anhydrous mounting medium (Merck, 109016). Images were acquired at 100× magnification using DeltaVision (Deconvolution) Image Restoration Microscope.

wild-type cells = test: Clonogenic survival, wild-type; assay type: cell-based, human; conditions: Rucaparib 1 μM, 1 h in mitosis
Protocol: as §1

mitotic end joining = test: Mitotic end-joining repair assay (extrachromosomal substrate, qPCR); assay type: cell-based, human; conditions: PLK1i (Volasertib, 200 nM), mitotic cells, substrate 150 ng, 1.5 h
Source text: To assess mitotic end-joining repair, a DNA repair substrate was designed to mimic resected DNA ends containing four microhomologies, as previously described. The repair substrate was built by ligating a PCR product (GFP sequence) to DNA oligonucleotide duplexes on both sides. The PCR product (747 bp) was amplified from a GFP sequence (PCAG vector, Addgene) using the following oligonucleotide sequences (Fwd core GFP: […], Rev core GFP: […]), digested by the BsaI-HF v2 enzyme (NEB) to reveal 4 nucleotides (nts) complementary to the DNA oligonucleotide duplexes and finally, purified (Gel and PCR cleanup kit Macherey-Nagel). In parallel, two oligonucleotide duplexes (1 and 2) with ~70 nts overhangs were made after annealing (95 °C 10 min, 25 °C 30 min) of the following oligonucleotides. Oligonucleotides for duplex 1 (17 nt dsDNA, 69 nt ssDNA): oligo 1-A, […]; oligo 1-B, […]. Oligonucleotides for duplex 2 (15 nt dsDNA, 71 nt ssDNA): oligo 2-A, […]; oligo 2-B: […]. […]
To measure DNA repair efficiency, a qPCR was performed both on the GFP sequence (to control for the DNA repair substrate transfection) as well as on potential end-joining repair products. Mitotic end-joining repair efficiency was calculated using ΔΔCt between GFP qPCR and end-joining qPCR using SYBR Green Master Mix (ThermoFisher Scientific).

Polθ foci in mitosis = test: Polθ recruitment to DSBs in mitosis under PLK1 inhibition; assay type: cell-based, human; conditions: wild-type Polθ expressing cells, PLK1i (Volasertib, 200 nM)
Protocol: as §2, with “[…] Images were mounted in SoftWoRx and analysed using the Fiji software (1.53c). […]” for “All scale bars represent 5 μm unless stated otherwise.”

Polθ phosphorylation = test: Label-free MS quantification of Polθ phospho-sites in mitotic HeLa GFP-Polθ cells; assay type: cell-based, Homo sapiens; conditions: nocodazole 16 h, volasertib during last hour, IP 500 mM NaCl, five experiments
Protocol: For the identification of Polθ binding partners by mass spectrometry, Polθ immunoprecipitation was performed as described above in 5 mg of nuclear extract of HEK-293T NeonGreen-POLQ knock-in cells. Lysates were incubated with mNeonGreen-Trap Magnetic Agarose beads (Chromotek) for 2 h at 4 °C and beads were washed twice with 150 mM NaCl buffer, once with 300 mM NaCl and three times in 25 mM ammonium bicarbonate. Finally, beads were resuspended in 100 µl 25 mM ammonium bicarbonate and digested by adding 0.2 μg of trypsin/LysC (Promega) for 1 h at 37 °C. Samples were then loaded into custom-made C18 StageTips packed by stacking one AttractSPE disk (SPE-Disks-Bio-C18-100.47.20 Affinisep) and 2 mg beads (186004521 SepPak C18 Cartridge Waters) into a 200 µl micropipette tip for desalting. Peptides were eluted using a ratio of 40:60 MeCN:H2O + 0.1% formic acid and vacuum concentrated to dryness. Peptides were reconstituted in injection buffer (0.3% TFA) before liquid chromatography–tandem mass spectrometry (LC–MS/MS) analysis by using an RSLCnano system (Ultimate 3000, Thermo Scientific) coupled to an Orbitrap Exploris 480 mass spectrometer (Thermo Scientific) as described previously. Mass spectrometry analysis was performed on three independent experiments. NeonGreen-Trap Magnetic Agarose beads incubated in HEK native cell extracts were used as control. For Polθ phosphorylated sites identification by mass spectrometry, Hela cells expressing GFP–Polθ were blocked 16 h in nocodazole. DMSO or Volasertib was added during the last hour of nocodazole treatment. 5 mg of nuclear extract were incubated with GFP Trap Magnetic Agarose beads (Chromotek) for 2 h at 4 °C and beads were washed once with 150 mM NaCl buffer, twice with 300 mM NaCl and twice with 500 mM NaCl buffer. Finally, beads were resuspended in 100 µl 25 mM Ammonium bicarbonate and digested by adding 0.2 μg of trypsin/LysC (Promega) for 1 h at 37 °C. Samples were then desalted and peptides were reconstituted in injection buffer before LC–MS/MS analysis as described previously in the Polθ binding partners identification. Mass spectrometry analysis was performed on five independent experiments. GFP Trap Magnetic Agarose beads incubated in HeLa native cell extracts were used as controls. […] Beads were resuspended, digested and desalted, and then peptides were reconstituted in injections buffer before LC–MS/MS analysis, as described for Polθ binding partners identification and by using an Orbitrap Eclipse mass spectrometer. Mass spectrometry analysis was performed on five independent experiments. Pull-downs of streptavidin beads incubated in nuclear extract of HeLa cells were used as control.

[4] = tested on: Polθ foci in G2, wild-type cells; test: Polθ foci in G2; assay type: cell-based, human; conditions: aphidicolin 0.4 to 1.6 μM
Protocol: as §2, with “[…] Images were mounted in SoftWoRx and analysed using the Fiji software (1.53c). […]” for “All scale bars represent 5 μm unless stated otherwise.”

Polθ nuclear bodies = Polθ nuclear bodies in G1 after siRNA; assay type: cell-based, human; conditions: siRNA knockdown, G1 cells
Protocol: Transfection of siRNA oligonucleotides (Eurofins) was performed using Lipofectamine RNAiMax (ThermoFisher Scientific) following the manufacturer’s instructions.
as §2, with “All images were taken with a Z-stack of 0.4 μM on 8 μM range around focus and projected using maximum intensity projection.” left out, “All scale bars represent 5 μm unless stated otherwise.” left out

CNCc1ccc(-c2[nH]c3cc(F)cc4c3c2CCNC4=O)cc1 [Rucaparib]
Polθ recruitment to mitotic DSBs [1]: abolished
clonogenic survival / cell killing (BRCA2^−/− cells): sufficient to kill BRCA2^−/−
DSB formation in mitosis (mitotic BRCA2^−/− cells [2]): induced the formation of DSBs
chromosomal abnormalities (breaks and radials) (mitotic BRCA2^−/− cells [3]): induced the formation of DSBs and chromosomal abnormalities
clonogenic survival / cell killing (wild-type cells): sufficient to kill BRCA2^−/− but not wild-type cells

CC[C@@H]1C(=O)N(C)c2cnc(Nc3ccc(C(=O)N[C@H]4CC[C@H](N5CCN(CC6CC6)CC5)CC4)cc3OC)nc2N1C(C)C [Volasertib]
efficiency of mitotic end joining (mitotic end joining): greatly impaired the efficiency of mitotic end joining
Polθ recruitment to DSBs in mitosis (Polθ foci in mitosis): neither mutant was recruited to DSBs in mitosis (Fig. 3f, Extended Data Fig. 8a and Supplementary Video 4), similar to our observations in wild-type Polθ expressing cells under PLK1 inhibition
Ratio Nocodazole / Volacertib, phospho-site S1628.S1639 (Polθ phosphorylation): 5.418
Ratio Nocodazole / Volacertib, phospho-site S1594 (Polθ phosphorylation; adj. p 0.00104923): 1.901
Ratio Nocodazole / Volacertib, phospho-site S1094* (Polθ phosphorylation; adj. p 0.0536125, * only re-extracted peptides by MBR): 1.958
Ratio Nocodazole / Volacertib, phospho-site T1755 (Polθ phosphorylation; adj. p 0.0634598): 3.242
Ratio Nocodazole / Volacertib, phospho-site S1436* (Polθ phosphorylation; adj. p 0.115005, * only re-extracted peptides by MBR): 1.887
Ratio Nocodazole / Volacertib, phospho-site S1289 (Polθ phosphorylation; adj. p 0.400471): 3.904

C[C@@]1(CO)[C@H](O)CC[C@@]2(C)[C@H]1CC[C@H]1C[C@@H]3C[C@@]12CC[C@]3(O)CO [aphidicolin, Aphidicolin]
Polθ foci in G2 [4]: Polθ foci in G2 could be induced by replication stress (aphidicolin treatment) in wild-type cells, to the level of that in BRCA2^−/− cells

CAGGACAGUCUUUCCACGAdTdT (sense CAGGACAGUCUUUCCACGATT; chemistry not fully specified) [53BP1, siRNA targeting 53BP1]
Polθ nuclear body formation (Polθ nuclear bodies): increased Polθ nuclear body formation
